Results taken from EP0200132A2, “(Aminoalkylthio)hydroxydibenzoxepins, a process for their preparation and their use as medicaments” (HOECHST-ROUSSEL PHARMACEUTICALS INCORPORATED, priority 1985, dated 1986).

How the values were obtained:
[1] = system: tetrabenazine-induced ptosis; experiment: inhibition of tetrabenazine-induced depression (ptosis) in mice; format: in vivo
[2] = system: phenyl-p-quinone writhing; experiment: phenyl-p-quinone writhing assay in mice; format: in vivo; details: Mus musculus, sc
Description: The (aminoalkylthio)hydroxydibenzoxepins of the present invention are also useful as analgetic agents due to their ability to alleviate pain in mammals. […] Exptl.

`CN(C)CCC=C1c2ccccc2CCc2ccccc21` [Amitriptyline, reference compound] was tested, and the “EDso (tetrabenazine-induced ptosis)” value ([1]; intraperitoneally, standard antidepressant, unit not given) was 1.5.
`CNCCSC1=Cc2cc(O)ccc2Oc2ccc(F)cc21` [Example 2, 2-Fluoro-8-hydroxy-11-[β-(methylamino)ethylthio)-dibenz-[b,f]oxepin] gave an inhibition at 20 mg/kg ([2]; mice, subcutaneous dose 20 mg/kg of body weight) of 69% and an ED50 ([1]; Mus musculus, ip, intraperitoneal, read-out: intraperitoneal dose effecting a 50% inhibition of tetrabenazine-induced ptosis (ED50)) of 3.3 mg/kg.
With `CNCCSC1=Cc2ccc(O)cc2Oc2ccc(F)cc21` [Example 3, 2-Fluoro-7-hydroxy-11-[β-(methylamino)ethylthio]-dibenz-[b,f]oxepin] the inhibition at 10 mg/kg ([2]; mice, subcutaneous dose 10 mg/kg of body weight) was 42% and the inhibition at 20 mg/kg ([1]; Mus musculus, ip, intraperitoneal dose 20 mg/kg of body weight) was 89%.
`CCC(=O)O[C@](Cc1ccccc1)(c1ccccc1)[C@H](C)CN(C)C` [Propoxyphene, reference compound] gave an ED50 ([2]; read-out: dose giving calculated 50% inhibition of writhing) of 3.9 mg/kg.
